In the assay the target is JNK3 (Homo sapiens, UniProt P53779). As to the kind of experiment: JNK3 SPA assay (phosphorylation of GST-c-Jun). It counts as biochemical. The note with it: 3.33 μM ATP, GST-c-Jun substrate, read-out: IC50 against JNK3. How it is done:
JNK1, JNK2, JNK3—SPA Assay
JNK1, JNK2, JNK3—SPA Assay • 1. Compound is dissolved in DMSO to a convenient concentration and this is diluted in 10% DMSO to a five times concentrate of the desired starting concentration (frequently 1:100). • 2. 10 μl of 500 mM EDTA is added to alternative wells of the Opti-plate row, which will receive kinase reaction plus DMSO. This creates the negative control. • 3. For the JNK2 and JNK3 assay, compounds are prepared in six 2-fold dilutions with water and each concentration is tested in duplicate. For the JNK1 assay compounds are prepared in four 5-fold dilutions with water which are tested in triplicate. Controls are treated identically. • 4. 20 μl per well of each compound concentration is transferred to an Opti-plate, in duplicate. • 5. 30 μl (JNK2/3 SPA) or 50 μl (JNK1 SPA) of substrate solution (25 mM HEPES pH 7.5, 10 mM magnesium acetate with 3.33 μM ATP (JNK2/3) or 2 μM ATP (JNK1), approximately 7.5 kBq [γ-^33P] ATP, GST-c-Jun, in water) is added to each well. • 6. 50 μl (JNK2/3 SPA) or 30 μl (JNK1 SPA) of kinase solution (JNK in 25 mM HEPES pH 7.5, 10 mM Mg Acetate) is added to each well.
• 7. The plate is incubated for 30 minutes at room temperature. • 8. 100 μl of bead/stop solution is added to each well (5 mg/ml glutathione-PVT-SPA beads, 40 mM ATP in PBS). • 9. Plates are sealed and incubated for 30 minutes at room temperature, centrifuged for 10 minutes at 2500 g and counted. • 10. The IC50 values are calculated as the concentration of the compound being tested at which the phosphorylation of c-Jun is decreased to 50% of the control value.

JNK3, sequence (P53779 whole entry, species assumed): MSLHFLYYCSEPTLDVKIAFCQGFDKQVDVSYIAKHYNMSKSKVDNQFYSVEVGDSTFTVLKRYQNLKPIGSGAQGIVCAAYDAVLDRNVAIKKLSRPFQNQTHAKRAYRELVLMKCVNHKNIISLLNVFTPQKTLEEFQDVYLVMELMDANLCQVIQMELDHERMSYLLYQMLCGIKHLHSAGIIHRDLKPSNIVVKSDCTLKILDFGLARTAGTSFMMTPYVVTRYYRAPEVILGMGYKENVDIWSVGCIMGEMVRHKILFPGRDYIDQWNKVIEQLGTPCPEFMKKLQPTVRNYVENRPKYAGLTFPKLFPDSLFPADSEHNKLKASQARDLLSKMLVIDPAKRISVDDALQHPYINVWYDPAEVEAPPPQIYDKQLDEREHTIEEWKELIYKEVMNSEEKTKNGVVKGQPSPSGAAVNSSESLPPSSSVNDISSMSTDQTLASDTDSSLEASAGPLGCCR

In the case of `Cc1csc(-c2c[nH]c3ncc(C4CCCCC4)cc23)n1` [Compound I-51, 2-(5-cyclohexyl-1H-pyrrolo[2,3-b]pyridin-3-yl)-4-methylthiazole], the IC50 (in general, the concentration at which inhibition is half-maximal) came to 0.933 µM.
For `CN1CCN(C(=O)c2nc(-c3c[nH]c4ncc(C5=CCCC5)cc34)cs2)CC1` [Compound I-5, [4-(5-Cyclopent-1-enyl-1H-pyrrolo[2,3-b]pyridin-3-yl)-thiazol-2-yl]-(4-methyl-piperazin-1-yl)-methanone], the IC50 worked out at 0.086 µM.
The result for `CN1CCCC1c1nc(-c2c[nH]c3ncc([C@H]4CC[C@H](N5CCCOCC5)CC4)cc23)cs1` (stereo partly shown) [Compound I-113, 4-((1r,4r)-4-(3-(2-(1-methylpyrrolidin-2-yl)thiazol-4-yl)-1H-pyrrolo[2,3-b]pyridin-5-yl)cyclohexyl)-1,4-oxazepane] reads 1.23 µM; that for `CC1CCC(c2cnc3[nH]cc(-c4csc(C(=O)N5CCOCC5)n4)c3c2)CC1` (stereo not shown) [Compound I-21, {4-[5-(4-Methyl-cyclohexyl)-1H-pyrrolo[2,3-b]pyridin-3-yl]-thiazol-2-yl}-morpholin-4-yl-methanone], 0.123 µM.
Consider `FC(F)(F)c1csc(-c2c[nH]c3ncc([C@H]4CC[C@H](N5CCOCC5)CC4)cc23)n1` [Compound I-69, 4-((1r,4r)-4-(3-(4-(trifluoromethyl)thiazol-2-yl)-1H-pyrrolo[2,3-b]pyridin-5-yl)cyclohexyl)morpholine], for which the IC50 stood at 0.447 µM.
In the case of `CN1CCC(c2nc(-c3c[nH]c4ncc(C5=CCC(N6CCOCC6)CC5)cc34)cs2)CC1` (stereo not shown) [Compound I-100, 4-(4-(3-(2-(1-methylpiperidin-4-yl)thiazol-4-yl)-1H-pyrrolo[2,3-b]pyridin-5-yl)cyclohex-3-enyl)morpholine], the half-inhibitory concentration (IC50) amounted to 0.447 µM.
With `c1sc(N2CCCC2)nc1-c1c[nH]c2ncc([C@H]3CC[C@H](N4CCCOCC4)CC3)cc12` [Compound I-122, 5-[trans-4-(1,4-oxazepan-4-yl)cyclohexyl]-3-(2-pyrrolidin-1-yl-1,3-thiazol-4-yl)-1H-pyrrolo[2,3-b]pyridine], the IC50 amounted to 1.29 µM.
As for `CN1CCC(c2nc(-c3c[nH]c4ncc([C@H]5CC[C@H](N6CCN(C)CC6)CC5)cc34)cs2)CC1` [Compound I-96, 4-(5-((1r,4r)-4-(4-methylpiperazin-1-yl)cyclohexyl)-1H-pyrrolo[2,3-b]pyridin-3-yl)-2-(1-methylpiperidin-4-yl)thiazole], the IC50 is 0.229 µM.
As to `CN1CCC(c2nc(-c3c[nH]c4ncc(C5CCCCC5)cc34)cs2)CC1` [Compound I-11, 5-Cyclohexyl-3-[2-(1-methyl-piperidin-4-yl)-thiazol-4-yl]-1H-pyrrolo[2,3-b]pyridine], the IC50 was determined as 0.24 µM.
The result for `CC1CC=C(c2cnc3[nH]cc(-c4csc(C(=O)N5CCOCC5)n4)c3c2)CC1` (stereo not shown) [Compound I-13, {4-[5-(4-Methyl-cyclohex-1-enyl)-1H-pyrrolo[2,3-b]pyridin-3-yl]-thiazol-2-yl}-morpholin-4-yl-methanone] reads 0.151 µM; that for `CN1CCC(c2csc(-c3c[nH]c4ncc([C@H]5CC[C@@H](N6CCOCC6)CC5)cc34)n2)CC1` [Compound I-79, 4-((1s,4s)-4-(3-(4-(1-methylpiperidin-4-yl)thiazol-2-yl)-1H-pyrrolo[2,3-b]pyridin-5-yl)cyclohexyl)morpholine], 0.309 µM.
For the compound `COc1nc(-c2c[nH]c3ncc([C@H]4CC[C@H](N5CCCOCC5)CC4)cc23)cs1` [Compound I-124, 3-(2-methoxy-1,3-thiazol-4-yl)-5-[trans-4-(1,4-oxazepan-4-yl)cyclohexyl]-1H-pyrrolo[2,3-b]pyridine], the IC50 came to 0.52 µM.
For the compound `CN1CCC(c2nc(-c3c[nH]c4ncc([C@H]5CC[C@H](N6CCCC6)CC5)cc34)cs2)CC1` [Compound I-98, 2-(1-methylpiperidin-4-yl)-4-(5-((1r,4r)-4-(pyrrolidin-1-yl)cyclohexyl)-1H-pyrrolo[2,3-b]pyridin-3-yl)thiazole], the IC50 was 0.794 µM.
Consider `CCC1CC=C(c2cnc3[nH]cc(-c4csc(C(=O)N5CCOCC5)n4)c3c2)CC1` (stereo not shown) [Compound I-27, {4-[5-(4-Ethyl-cyclohex-1-enyl)-1H-pyrrolo[2,3-b]pyridin-3-yl]-thiazol-2-yl}-morpholin-4-yl-methanone], for which the IC50 turned out to be 0.447 µM.
The result for `c1ncc(-c2c[nH]c3ncc([C@H]4CC[C@H](N5CCCOCC5)CC4)cc23)s1` [Compound I-118, 4-((1r,4r)-4-(3-(thiazol-5-yl)-1H-pyrrolo[2,3-b]pyridin-5-yl)cyclohexyl)-1,4-oxazepane] reads 0.219 µM; that for `CN(C)C(=O)c1nc(-c2c[nH]c3ncc(C4CCCCC4)cc23)cs1` [Compound I-9, 4-[5-cyclohexyl-1H-pyrrolo[2,3-b]pyridin-3-yl]-thiazole-2-carboxylic acid dimethylamide], 0.147 µM; that for `O=C(c1nc(-c2c[nH]c3ncc(C4=CCCC4)cc23)cs1)N1CCCCC1` [Compound I-4, [4-(5-Cyclopent-1-enyl-1H-pyrrolo[2,3-b]pyridin-3-yl)-thiazol-2-yl]-piperidin-1-yl-methanone], 0.251 µM.
The result for `O=C(c1nc(-c2c[nH]c3ncc([C@H]4CC[C@@H](N5CCOCC5)CC4)cc23)cs1)N1CCCCC1` [Compound I-30, (4-(5-((1r,4r)-4-morpholinocyclohexyl)-1H-pyrrolo[2,3-b]pyridin-3-yl)thiazol-2-yl)(piperidin-1-yl)methanone] reads 0.229 µM; that for `Cc1nc(-c2c[nH]c3ncc([C@H]4CC[C@@H](N5CCOCC5)CC4)cc23)cs1` [Compound I-56, 4-((1s,4s)-4-(3-(2-methylthiazol-4-yl)-1H-pyrrolo[2,3-b]pyridin-5-yl)cyclohexyl)morpholine], > 2 µM.
The result for `c1csc(-c2c[nH]c3ncc(C4CCCCC4)cc23)n1` [Compound I-26, 2-(5-cyclohexyl-1H-pyrrolo[2,3-b]pyridin-3-yl)thiazole] reads 0.324 µM; that for `c1ncc(-c2c[nH]c3ncc(C4CCCCC4)cc23)s1` [Compound I-48, 5-(5-cyclohexyl-1H-pyrrolo[2,3-b]pyridin-3-yl)thiazole], 0.58 µM; that for `CN1CCN(C(=O)c2nc(-c3c[nH]c4ncc(C5CCCCC5)cc34)cs2)CC1` [Compound I-10, [4-(5-Cyclohexyl-1H-pyrrolo[2,3-b]pyridin-3-yl)-thiazol-2-yl]-(4-methyl-piperazin-1-yl)-methanone], 0.063 µM.
With `CN1CCCC1c1nc(-c2c[nH]c3ncc([C@H]4CC[C@H](N5CCOCC5)CC4)cc23)cs1` (stereo partly shown) [Compound I-107, 4-((1r,4r)-4-(3-(2-(1-methylpyrrolidin-2-yl)thiazol-4-yl)-1H-pyrrolo[2,3-b]pyridin-5-yl)cyclohexyl)morpholine], the IC50 stood at 1.26 µM.
As to `CN1CCCC1c1nc(-c2c[nH]c3ncc([C@H]4CC[C@@H](N5CCCOCC5)CC4)cc23)cs1` (stereo partly shown) [Compound I-114, 4-((1s,4s)-4-(3-(2-(1-methylpyrrolidin-2-yl)thiazol-4-yl)-1H-pyrrolo[2,3-b]pyridin-5-yl)cyclohexyl)-1,4-oxazepane], the IC50 turned out to be 1.44 µM.
Consider `c1nc(-c2c[nH]c3ncc(C4CCCCC4)cc23)cs1` [Compound I-49, 4-(5-cyclohexyl-1H-pyrrolo[2,3-b]pyridin-3-yl)thiazole], for which the IC50 came to 0.089 µM.

For the origin of these results see patent US7951802B2, “Use of 7-azaindoles in the inhibition of c-Jun N-terminal kinase” (Eisai R&D Management Co., Ltd., priority 2007, dated 2011).
